Measured values published in ChEMBL document CHEMBL1201862, “PubChem BioAssay data set” (2004).
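Dose response: 5 concentrations. Exposure: 48 h. Format: 96-well plates. Endpoint: linear interpolation; highest concentration if not reached. GI50 is the concentration that inhibits growth by half.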 The source made the active and inactive calls. Rule as the data show it: active = GI50 up to about 1.1 µM and inactive = higher.

Tests used:
Assay in all cases: DTP human tumour cell line panel, 48 h
A498 = tested on: A498
HCC 2998 = tested on: HCC 2998
HL-60 = tested on: HL-60
HOP-92 = tested on: HOP-92
M14 = tested on: M14
OVCAR-8 = tested on: OVCAR-8
RPMI-8226 = tested on: RPMI-8226
RXF 393 = tested on: RXF 393
SF-268 = tested on: SF-268
SK-MEL-2 = tested on: SK-MEL-2
SR = tested on: SR
TK-10 = tested on: TK-10
U-251 = tested on: U-251
UACC-62 = tested on: UACC-62
ACHN = tested on: ACHN
UACC-257 = tested on: UACC-257

| Structure (SMILES) | GI50 (A498) | GI50 (HCC 2998) | GI50 (HL-60) | GI50 (HOP-92) | GI50 (M14) | GI50 (OVCAR-8) | GI50 (RPMI-8226) | GI50 (RXF 393) | GI50 (SF-268) | GI50 (SK-MEL-2) | GI50 (SR) | GI50 (TK-10) | GI50 (U-251) | GI50 (UACC-62) | GI50 (ACHN) | GI50 (UACC-257) |
| --- | --- | --- | --- | --- | --- | --- | --- | --- | --- | --- | --- | --- | --- | --- | --- | --- |
| COC(=O)C1(C)NCCc2c1[nH]c1ccccc21 (configuration not stated) | > 100 µM (inactive) | > 100 µM (inactive) | > 10 µM (inactive) | > 100 µM (inactive) | > 100 µM (inactive) | > 100 µM (inactive) | > 100 µM (inactive) | > 100 µM (inactive) | > 100 µM (inactive) | > 100 µM (inactive) | > 100 µM (inactive) | > 100 µM (inactive) | > 100 µM (inactive) | > 100 µM (inactive) | – | – |
| C=C1CCC(OC(C)=O)C2(C)C(OC(C)=O)CC3OC3(C)C2C(OC(C)=O)C2C(C)C(=O)OC2C1Cl (configuration not stated) | > 100 µM (inactive) | > 100 µM (inactive) | > 100 µM (inactive) | > 100 µM (inactive) | > 100 µM (inactive) | > 100 µM (inactive) | > 100 µM (inactive) | > 100 µM (inactive) | > 100 µM (inactive) | > 100 µM (inactive) | > 100 µM (inactive) | > 100 µM (inactive) | > 100 µM (inactive) | > 100 µM (inactive) | > 100 µM (inactive) | > 100 µM (inactive) |
| Cc1nc2ccccn2c1/N=N/c1ccc(C(=O)NN)cc1 | 27.7 µM (inactive) | 75.7 µM (inactive) | 9.31 µM (inactive) | 46.5 µM (inactive) | > 100 µM (inactive) | 95.3 µM (inactive) | 28.4 µM (inactive) | 9.82 µM (inactive) | 19.4 µM (inactive) | – | – | 23 µM (inactive) | 61.7 µM (inactive) | 80.2 µM (inactive) | 36 µM (inactive) | 97.5 µM (inactive) |
| COC(=O)C1CC2CC(=NNC(N)=O)CC2C1 (configuration not stated) | > 100 µM (inactive) | > 100 µM (inactive) | > 100 µM (inactive) | > 100 µM (inactive) | > 100 µM (inactive) | > 100 µM (inactive) | > 100 µM (inactive) | > 100 µM (inactive) | > 100 µM (inactive) | > 100 µM (inactive) | – | > 100 µM (inactive) | > 100 µM (inactive) | > 100 µM (inactive) | > 100 µM (inactive) | > 100 µM (inactive) |
| COc1ccc(C(=O)C(C(=O)CC(=O)Nc2cccc(C(F)(F)F)c2)c2ccc(OC)cc2)cc1 (configuration not stated) | > 100 µM (inactive) | > 100 µM (inactive) | > 100 µM (inactive) | > 100 µM (inactive) | > 100 µM (inactive) | > 100 µM (inactive) | > 100 µM (inactive) | 78.9 µM (inactive) | > 100 µM (inactive) | > 100 µM (inactive) | > 100 µM (inactive) | – | > 100 µM (inactive) | > 100 µM (inactive) | > 100 µM (inactive) | > 100 µM (inactive) |
| CCc1ccccc1N1C(=O)C(=O)C(c2nc3ccccc3s2)C(=O)C1=O | – | > 100 µM (inactive) | 40.3 µM (inactive) | > 100 µM (inactive) | 59 µM (inactive) | 41.8 µM (inactive) | 72.4 µM (inactive) | > 100 µM (inactive) | > 100 µM (inactive) | > 100 µM (inactive) | 55 µM (inactive) | > 100 µM (inactive) | 36.1 µM (inactive) | > 100 µM (inactive) | > 100 µM (inactive) | > 100 µM (inactive) |
| COC(=O)CCC(NC(=S)N/N=C(\C)c1cnccn1)C(=O)OC (configuration not stated) | > 100 µM (inactive) | 56.5 µM (inactive) | 14.8 µM (inactive) | > 100 µM (inactive) | 42.4 µM (inactive) | 38.6 µM (inactive) | 44.9 µM (inactive) | > 100 µM (inactive) | 35.4 µM (inactive) | 68.1 µM (inactive) | 29.2 µM (inactive) | > 100 µM (inactive) | 52.4 µM (inactive) | 28.6 µM (inactive) | 29.8 µM (inactive) | 33.8 µM (inactive) |
| N#CC(C#N)=c1ccc(=C2N3CCCC3CN2C23CC4CC(CC(C4)C2)C3)cc1 (configuration not stated) | – | > 100 µM (inactive) | > 100 µM (inactive) | > 100 µM (inactive) | > 100 µM (inactive) | > 100 µM (inactive) | > 100 µM (inactive) | > 100 µM (inactive) | 55.8 µM (inactive) | > 100 µM (inactive) | > 100 µM (inactive) | 76.4 µM (inactive) | > 100 µM (inactive) | 90.6 µM (inactive) | > 100 µM (inactive) | > 100 µM (inactive) |
| Cc1ccc(S(=O)(=O)N/N=C2\C(=O)C3CC2C(Cl)C3Cl)cc1 (configuration not stated) | > 100 µM (inactive) | > 100 µM (inactive) | > 100 µM (inactive) | 70.8 µM (inactive) | > 100 µM (inactive) | > 100 µM (inactive) | > 100 µM (inactive) | – | > 100 µM (inactive) | – | > 100 µM (inactive) | > 100 µM (inactive) | > 100 µM (inactive) | > 100 µM (inactive) | > 100 µM (inactive) | > 100 µM (inactive) |
| Nc1cccc(C(=O)/C=C/c2ccccc2O)c1 | > 100 µM (inactive) | > 100 µM (inactive) | 20.7 µM (inactive) | > 100 µM (inactive) | > 100 µM (inactive) | > 100 µM (inactive) | 16.2 µM (inactive) | 85.5 µM (inactive) | > 100 µM (inactive) | > 100 µM (inactive) | 44.7 µM (inactive) | > 100 µM (inactive) | 98.6 µM (inactive) | > 100 µM (inactive) | > 100 µM (inactive) | > 100 µM (inactive) |
| [C-]#[N+][C@@H]1C2[C@H](CC[C@@]1(C)O)C(=C)CC[C@@H]2[C@@]1(C)CC[C@H](Cl)C(C)(C)O1 (some centres not stated) | 18.5 µM (inactive) | 11.1 µM (inactive) | 1.92 µM (inactive) | – | 2.81 µM (inactive) | 3.29 µM (inactive) | 2.51 µM (inactive) | 14 µM (inactive) | 11 µM (inactive) | 6.3 µM (inactive) | – | 16.2 µM (inactive) | 8.87 µM (inactive) | 3.59 µM (inactive) | 4.22 µM (inactive) | 8.32 µM (inactive) |
| CCC12C=C(C(=O)OC)N3c4ccccc4C4CCN(CCC1)C2C43 (configuration not stated) | 66.2 µM (inactive) | 29.7 µM (inactive) | 78.9 µM (inactive) | 34.8 µM (inactive) | 33.4 µM (inactive) | > 100 µM (inactive) | 50.6 µM (inactive) | 53.2 µM (inactive) | > 100 µM (inactive) | > 100 µM (inactive) | – | > 100 µM (inactive) | 82.4 µM (inactive) | > 100 µM (inactive) | 62.5 µM (inactive) | 34.2 µM (inactive) |
| C#CC1(O)CCC2C3CCc4cc(Oc5nc(F)nc(-c6c7ccccc7c7n6CCS7)n5)ccc4C3CC[C@@]21C (some centres not stated) | – | 19.2 µM (inactive) | 19.8 µM (inactive) | 23.8 µM (inactive) | 17.5 µM (inactive) | 27.7 µM (inactive) | 19.6 µM (inactive) | – | 29 µM (inactive) | 5.62 µM (inactive) | 5.79 µM (inactive) | 27.2 µM (inactive) | 17.5 µM (inactive) | 21.1 µM (inactive) | 29.6 µM (inactive) | 36.1 µM (inactive) |
| NC(=O)C(=O)Cc1nc2ccccc2s1 | > 100 µM (inactive) | > 100 µM (inactive) | > 100 µM (inactive) | > 100 µM (inactive) | > 100 µM (inactive) | > 100 µM (inactive) | > 100 µM (inactive) | > 100 µM (inactive) | > 100 µM (inactive) | > 100 µM (inactive) | – | > 100 µM (inactive) | > 100 µM (inactive) | – | > 100 µM (inactive) | > 100 µM (inactive) |
| CC1=N/C(=C\c2cccc3ccccc23)C(=O)O1 | > 100 µM (inactive) | > 100 µM (inactive) | > 100 µM (inactive) | > 100 µM (inactive) | > 100 µM (inactive) | > 100 µM (inactive) | > 100 µM (inactive) | > 100 µM (inactive) | > 100 µM (inactive) | > 100 µM (inactive) | – | > 100 µM (inactive) | > 100 µM (inactive) | > 100 µM (inactive) | > 100 µM (inactive) | > 100 µM (inactive) |
| CC1CC(=O)Nc2ccccc2N1C(=O)CN1CCC(CCCCN(C)C)CC1 (configuration not stated) | > 100 µM (inactive) | > 100 µM (inactive) | > 100 µM (inactive) | – | > 100 µM (inactive) | > 100 µM (inactive) | > 100 µM (inactive) | > 100 µM (inactive) | > 100 µM (inactive) | > 100 µM (inactive) | > 100 µM (inactive) | > 100 µM (inactive) | > 100 µM (inactive) | > 100 µM (inactive) | > 100 µM (inactive) | > 100 µM (inactive) |
| O=C(CC1Sc2ccccc2NC1=O)Nc1ccc([N+](=O)[O-])cc1[N+](=O)[O-] (configuration not stated) | – | 50.9 µM (inactive) | 17.8 µM (inactive) | 11 µM (inactive) | 16 µM (inactive) | 16.5 µM (inactive) | 11.3 µM (inactive) | 12.9 µM (inactive) | 16.6 µM (inactive) | 19.5 µM (inactive) | – | 41.3 µM (inactive) | 16 µM (inactive) | 15.4 µM (inactive) | 15.3 µM (inactive) | 19.9 µM (inactive) |
| COc1ccc2nc3cc(Cl)ccc3c(NC(C)CCCN(CCCl)CCCl)c2c1 (configuration not stated) | 3.12 µM (inactive) | 1.35 µM (inactive) | 0.12 µM (active) | 0.569 µM (active) | 0.809 µM (active) | 0.169 µM (active) | 0.293 µM (active) | 1.04 µM (active) | 0.273 µM (active) | 1.1 µM (active) | 0.0463 µM (active) | 1.3 µM (inactive) | 0.607 µM (active) | 0.29 µM (active) | 0.161 µM (active) | 1.43 µM (inactive) |
